In brackets after ≈: the same amount, converted by molar mass.
Tests used:
Format in all cases: functional
Bacillus = experiment: Antibacterial activity against Bacillus proteus ATCC 13315 after 24 hrs by two-fold microbroth dilution method; settings: ATCC 13315, 24 h
Escherichia coli = experiment: Antibacterial activity against Escherichia coli JM109 after 24 hrs by two-fold microbroth dilution method; settings: JM109, 24 h
Pseudomonas aeruginosa = experiment: Antibacterial activity against Pseudomonas aeruginosa ATCC 27853 after 24 hrs by two-fold microbroth dilution method; settings: ATCC 27853, 24 h
[1] = Antibacterial activity against Eberthella typhosa ATCC 14028 after 24 hrs by two-fold microbroth dilution method; settings: ATCC 14028, 24 h
Staphylococcus aureus [2] = experiment: Antibacterial activity against methicillin-resistant Staphylococcus aureus N315 after 24 hrs by two-fold microbroth dilution method; settings: N315, 24 h
Staphylococcus aureus [3] = experiment: Antibacterial activity against Staphylococcus aureus ATCC 25923 after 24 hrs by two-fold microbroth dilution method; settings: ATCC 25923, 24 h
Bacillus spizizenii = experiment: Antibacterial activity against Bacillus subtilis ATCC 6633 after 24 hrs by two-fold microbroth dilution method; settings: ATCC 6633, 24 h
Micrococcus luteus = experiment: Antibacterial activity against Micrococcus luteus ATCC 4698 after 24 hrs by two-fold microbroth dilution method; settings: NCTC 2665, 24 h
Cyberlindnera jadinii = experiment: Antifungal activity against Candida utilis ATCC 9950 after 24 hrs by two-fold microbroth dilution method; settings: Williopsis jadinii, ATCC 9950, 24 h
Aspergillus flavus = experiment: Antifungal activity against Aspergillus flavus ATCC 204304 after 24 hrs by two-fold microbroth dilution method; settings: ATCC 204304, 24 h
Saccharomyces cerevisiae = experiment: Antifungal activity against Saccharomyces cerevisiae ATCC 9763 after 24 hrs by two-fold microbroth dilution method; settings: ATCC 9763, 24 h
Candida albicans = experiment: Antifungal activity against Candida albicans ATCC 10231 after 24 hrs by two-fold microbroth dilution method; settings: ATCC 10231, 24 h
Pichia norvegensis = experiment: Antifungal activity against Candida mycoderma ATCC 9888 after 24 hrs by two-fold microbroth dilution method; settings: ATCC 9888, 24 h

Work on `CCCCCCCCCCCCCCCCn1c2ccc(C(=O)CCl)cc2c2cc(C(=O)CCl)ccc21` yielded an MIC (Bacillus) of 256 µg/mL (≈ 470 µM), an MIC (Escherichia coli) of 256 µg/mL (≈ 470 µM) and an MIC (Pseudomonas aeruginosa) of 256 µg/mL (≈ 470 µM). It also gave an MIC [1] of 512 µg/mL (≈ 940 µM), an MIC (Staphylococcus aureus [2]) of 256 µg/mL (≈ 470 µM) and an MIC (Staphylococcus aureus [3]) of 128 µg/mL (≈ 235 µM). For the same molecule, the MIC (Bacillus spizizenii) was 256 µg/mL (≈ 470 µM), the MIC (Micrococcus luteus) was 256 µg/mL (≈ 470 µM) and the MIC (Cyberlindnera jadinii) was 256 µg/mL (≈ 470 µM). The MIC (Aspergillus flavus) was 256 µg/mL (≈ 470 µM), the MIC (Saccharomyces cerevisiae) was 512 µg/mL (≈ 940 µM) and the MIC (Candida albicans) was 512 µg/mL (≈ 940 µM). For the same molecule, the MIC (Pichia norvegensis) was 256 µg/mL (≈ 470 µM).
Work on `CCCCCCCCn1c2ccc(C(=O)CCl)cc2c2cc(C(=O)CCl)ccc21` yielded an MIC (Bacillus) of 512 µg/mL (≈ 1180 µM), an MIC (Escherichia coli) of 512 µg/mL (≈ 1180 µM) and an MIC (Pseudomonas aeruginosa) of 256 µg/mL (≈ 592 µM). It also gave an MIC [1] of 512 µg/mL (≈ 1180 µM), an MIC (Staphylococcus aureus [2]) of 512 µg/mL (≈ 1180 µM) and an MIC (Staphylococcus aureus [3]) of 512 µg/mL (≈ 1180 µM). The MIC (Bacillus spizizenii) was 512 µg/mL (≈ 1180 µM), the MIC (Micrococcus luteus) was 512 µg/mL (≈ 1180 µM) and the MIC (Cyberlindnera jadinii) was 512 µg/mL (≈ 1180 µM). It also gave an MIC (Aspergillus flavus) of 512 µg/mL (≈ 1180 µM), an MIC (Saccharomyces cerevisiae) of 256 µg/mL (≈ 592 µM) and an MIC (Candida albicans) of 512 µg/mL (≈ 1180 µM). For the same molecule, the MIC (Pichia norvegensis) was 512 µg/mL (≈ 1180 µM).
`CCCn1c2ccc(-c3csc(N)n3)cc2c2cc(-c3csc(N)n3)ccc21` showed an MIC (Bacillus) of 256 µg/mL (≈ 631 µM), an MIC (Escherichia coli) of 256 µg/mL (≈ 631 µM) and an MIC (Pseudomonas aeruginosa) of 128 µg/mL (≈ 316 µM). For the same molecule, the MIC [1] was 256 µg/mL (≈ 631 µM), the MIC (Staphylococcus aureus [2]) was 256 µg/mL (≈ 631 µM) and the MIC (Staphylococcus aureus [3]) was 128 µg/mL (≈ 316 µM). The MIC (Bacillus spizizenii) was 128 µg/mL (≈ 316 µM), the MIC (Micrococcus luteus) was 128 µg/mL (≈ 316 µM) and the MIC (Cyberlindnera jadinii) was 128 µg/mL (≈ 316 µM). It also gave an MIC (Aspergillus flavus) of 256 µg/mL (≈ 631 µM), an MIC (Saccharomyces cerevisiae) of 256 µg/mL (≈ 631 µM) and an MIC (Candida albicans) of 64 µg/mL (≈ 158 µM). For the same molecule, the MIC (Pichia norvegensis) was 256 µg/mL (≈ 631 µM).
Molecule `CCn1cc(C(=O)O)c(=O)c2cc(F)c(N3CCNCC3)cc21` [NORFLOXACIN] has an MIC (Bacillus) of 4 µg/mL (≈ 12.5 µM), an MIC (Escherichia coli) of 16 µg/mL (≈ 50.1 µM) and an MIC (Pseudomonas aeruginosa) of 2 µg/mL (≈ 6.26 µM). The MIC [1] was 4 µg/mL (≈ 12.5 µM), the MIC (Staphylococcus aureus [2]) was 8 µg/mL (≈ 25.1 µM) and the MIC (Staphylococcus aureus [3]) was 2 µg/mL (≈ 6.26 µM). For the same molecule, the MIC (Bacillus spizizenii) was 1 µg/mL (≈ 3.13 µM) and the MIC (Micrococcus luteus) was 2 µg/mL (≈ 6.26 µM).
With `CCCCCCCCCCCCCCCCCCn1c2ccc(C(=O)CCl)cc2c2cc(C(=O)CCl)ccc21` the MIC (Bacillus) was 512 µg/mL (≈ 894 µM), the MIC (Escherichia coli) was 256 µg/mL (≈ 447 µM) and the MIC (Pseudomonas aeruginosa) was 256 µg/mL (≈ 447 µM). The MIC [1] was 256 µg/mL (≈ 447 µM), the MIC (Staphylococcus aureus [2]) was 256 µg/mL (≈ 447 µM) and the MIC (Staphylococcus aureus [3]) was 128 µg/mL (≈ 224 µM). It also gave an MIC (Bacillus spizizenii) of 512 µg/mL (≈ 894 µM), an MIC (Micrococcus luteus) of 512 µg/mL (≈ 894 µM) and an MIC (Cyberlindnera jadinii) of 512 µg/mL (≈ 894 µM). The MIC (Aspergillus flavus) was 256 µg/mL (≈ 447 µM), the MIC (Saccharomyces cerevisiae) was 256 µg/mL (≈ 447 µM) and the MIC (Candida albicans) was 512 µg/mL (≈ 894 µM). The MIC (Pichia norvegensis) was 512 µg/mL (≈ 894 µM).
Molecule `CCCCCCCCCCn1c2ccc(C(=O)CCl)cc2c2cc(C(=O)CCl)ccc21` has an MIC (Bacillus) of 256 µg/mL (≈ 556 µM), an MIC (Escherichia coli) of 512 µg/mL (≈ 1110 µM) and an MIC (Pseudomonas aeruginosa) of 128 µg/mL (≈ 278 µM). The MIC [1] was 256 µg/mL (≈ 556 µM), the MIC (Staphylococcus aureus [2]) was 512 µg/mL (≈ 1110 µM) and the MIC (Staphylococcus aureus [3]) was 256 µg/mL (≈ 556 µM). It also gave an MIC (Bacillus spizizenii) of 256 µg/mL (≈ 556 µM), an MIC (Micrococcus luteus) of 128 µg/mL (≈ 278 µM) and an MIC (Cyberlindnera jadinii) of 256 µg/mL (≈ 556 µM). For the same molecule, the MIC (Aspergillus flavus) was 512 µg/mL (≈ 1110 µM), the MIC (Saccharomyces cerevisiae) was 256 µg/mL (≈ 556 µM) and the MIC (Candida albicans) was 256 µg/mL (≈ 556 µM). The MIC (Pichia norvegensis) was 256 µg/mL (≈ 556 µM).
In the case of `CCCn1c2ccc(C(=O)CCl)cc2c2cc(C(=O)CCl)ccc21`, the MIC (Bacillus) is reported as 128 µg/mL (≈ 353 µM), the MIC (Escherichia coli) is reported as 256 µg/mL (≈ 707 µM) and the MIC (Pseudomonas aeruginosa) is reported as 256 µg/mL (≈ 707 µM). For the same molecule, the MIC [1] was 256 µg/mL (≈ 707 µM), the MIC (Staphylococcus aureus [2]) was 512 µg/mL (≈ 1410 µM) and the MIC (Staphylococcus aureus [3]) was 512 µg/mL (≈ 1410 µM). The MIC (Bacillus spizizenii) was 512 µg/mL (≈ 1410 µM), the MIC (Micrococcus luteus) was 512 µg/mL (≈ 1410 µM) and the MIC (Cyberlindnera jadinii) was 256 µg/mL (≈ 707 µM). For the same molecule, the MIC (Aspergillus flavus) was 512 µg/mL (≈ 1410 µM), the MIC (Saccharomyces cerevisiae) was 256 µg/mL (≈ 707 µM) and the MIC (Candida albicans) was 256 µg/mL (≈ 707 µM). The MIC (Pichia norvegensis) was 512 µg/mL (≈ 1410 µM).
In the case of `CCCCCCn1c2ccc(-c3csc(N)n3)cc2c2cc(-c3csc(N)n3)ccc21`, the MIC (Bacillus) is reported as 256 µg/mL (≈ 572 µM), the MIC (Escherichia coli) is reported as 128 µg/mL (≈ 286 µM) and the MIC (Pseudomonas aeruginosa) is reported as 32 µg/mL (≈ 71.5 µM). For the same molecule, the MIC [1] was 256 µg/mL (≈ 572 µM), the MIC (Staphylococcus aureus [2]) was 64 µg/mL (≈ 143 µM) and the MIC (Staphylococcus aureus [3]) was 32 µg/mL (≈ 71.5 µM). The MIC (Bacillus spizizenii) was 512 µg/mL (≈ 1140 µM), the MIC (Micrococcus luteus) was 256 µg/mL (≈ 572 µM) and the MIC (Cyberlindnera jadinii) was 256 µg/mL (≈ 572 µM). It also gave an MIC (Aspergillus flavus) of 512 µg/mL (≈ 1140 µM), an MIC (Saccharomyces cerevisiae) of 256 µg/mL (≈ 572 µM) and an MIC (Candida albicans) of 256 µg/mL (≈ 572 µM). For the same molecule, the MIC (Pichia norvegensis) was 128 µg/mL (≈ 286 µM).
With `CCCCCCCCCCn1c2ccc(-c3csc(N)n3)cc2c2cc(-c3csc(N)n3)ccc21` the MIC (Bacillus) was 128 µg/mL (≈ 254 µM), the MIC (Escherichia coli) was 256 µg/mL (≈ 508 µM) and the MIC (Pseudomonas aeruginosa) was 512 µg/mL (≈ 1020 µM). It also gave an MIC [1] of 512 µg/mL (≈ 1020 µM), an MIC (Staphylococcus aureus [2]) of 128 µg/mL (≈ 254 µM) and an MIC (Staphylococcus aureus [3]) of 128 µg/mL (≈ 254 µM). The MIC (Bacillus spizizenii) was 512 µg/mL (≈ 1020 µM), the MIC (Micrococcus luteus) was 256 µg/mL (≈ 508 µM) and the MIC (Cyberlindnera jadinii) was 256 µg/mL (≈ 508 µM). The MIC (Aspergillus flavus) was 128 µg/mL (≈ 254 µM), the MIC (Saccharomyces cerevisiae) was 256 µg/mL (≈ 508 µM) and the MIC (Candida albicans) was 128 µg/mL (≈ 254 µM). It also gave an MIC (Pichia norvegensis) of 128 µg/mL (≈ 254 µM).
`CCCCCCn1c2ccc(C(=O)CCl)cc2c2cc(C(=O)CCl)ccc21` showed an MIC (Bacillus) of 16 µg/mL (≈ 39.6 µM), an MIC (Escherichia coli) of 512 µg/mL (≈ 1270 µM) and an MIC (Pseudomonas aeruginosa) of 16 µg/mL (≈ 39.6 µM). The MIC [1] was 256 µg/mL (≈ 633 µM), the MIC (Staphylococcus aureus [2]) was 512 µg/mL (≈ 1270 µM) and the MIC (Staphylococcus aureus [3]) was 512 µg/mL (≈ 1270 µM). For the same molecule, the MIC (Bacillus spizizenii) was 512 µg/mL (≈ 1270 µM), the MIC (Micrococcus luteus) was 256 µg/mL (≈ 633 µM) and the MIC (Cyberlindnera jadinii) was 256 µg/mL (≈ 633 µM). It also gave an MIC (Aspergillus flavus) of 512 µg/mL (≈ 1270 µM), an MIC (Saccharomyces cerevisiae) of 512 µg/mL (≈ 1270 µM) and an MIC (Candida albicans) of 512 µg/mL (≈ 1270 µM). For the same molecule, the MIC (Pichia norvegensis) was 256 µg/mL (≈ 633 µM).
Work on `CCCCn1c2ccc(-c3csc(N)n3)cc2c2cc(-c3csc(N)n3)ccc21` yielded an MIC (Bacillus) of 128 µg/mL (≈ 305 µM), an MIC (Escherichia coli) of 128 µg/mL (≈ 305 µM) and an MIC (Pseudomonas aeruginosa) of 64 µg/mL (≈ 153 µM). For the same molecule, the MIC [1] was 128 µg/mL (≈ 305 µM), the MIC (Staphylococcus aureus [2]) was 256 µg/mL (≈ 610 µM) and the MIC (Staphylococcus aureus [3]) was 128 µg/mL (≈ 305 µM). It also gave an MIC (Bacillus spizizenii) of 256 µg/mL (≈ 610 µM), an MIC (Micrococcus luteus) of 128 µg/mL (≈ 305 µM) and an MIC (Cyberlindnera jadinii) of 256 µg/mL (≈ 610 µM). The MIC (Aspergillus flavus) was 256 µg/mL (≈ 610 µM), the MIC (Saccharomyces cerevisiae) was 128 µg/mL (≈ 305 µM) and the MIC (Candida albicans) was 128 µg/mL (≈ 305 µM). It also gave an MIC (Pichia norvegensis) of 64 µg/mL (≈ 153 µM).
